Values of other authors, collected in article PMC7686313, “Phase 1 study of mTORC1/2 inhibitor sapanisertib (TAK-228) in advanced solid tumours, with an expansion phase in renal, endometrial or bladder cancer” (British Journal of Cancer, 2020).

Legend:
[1] = test system: refractory clear-cell RCC; parameters: method as in earlier work; conditions: 10 mg QD; cited from earlier work
[2] = test system: RCC; conditions: patients with RCC; cited from earlier work

SMILES	ORR [1] [%]	ORR [2] [%]
CO[C@H]1C[C@@H]2CC[C@@H](C)[C@@](O)(O2)C(=O)C(=O)N2CCCC[C@H]2C(=O)O[C@H]([C@H](C)C[C@@H]2CC[C@@H](OCCO)[C@H](OC)C2)CC(=O)[C@H](C)/C=C(\C)[C@@H](O)[C@@H](OC)C(=O)[C@H](C)C[C@H](C)/C=C/C=C/C=C/1C [everolimus, reference compound]	13	–
CO[C@H]1C[C@@H]2CC[C@@H](C)[C@@](O)(O2)C(=O)C(=O)N2CCCC[C@H]2C(=O)O[C@H]([C@H](C)C[C@@H]2CC[C@@H](OC(=O)C(C)(CO)CO)[C@H](OC)C2)CC(=O)[C@H](C)/C=C(\C)[C@@H](O)[C@@H](OC)C(=O)[C@H](C)C[C@H](C)/C=C/C=C/C=C/1C [temsirolimus]	–	8.6
